From ChEMBL document CHEMBL3259605, “Improving the Pharmacokinetics of GPR40/FFA1 Full Agonists” (ACS Med Chem Lett, 2014)
Activity calls are given as the source filed them. The calls are words filed in the database; no cut-off is given here.

How the values were obtained:
[1] = molecular target: T1, Free fatty acid receptor 1 (Homo sapiens, UniProt O14842); assay: Agonist activity at GPR40 (unknown origin) expressed in CHO cells assessed as luminescence for 20 seconds interval by aequorin assay in presence of 0.01% human serum albumin; type: cell-based
T1 sequence (O14842 whole entry): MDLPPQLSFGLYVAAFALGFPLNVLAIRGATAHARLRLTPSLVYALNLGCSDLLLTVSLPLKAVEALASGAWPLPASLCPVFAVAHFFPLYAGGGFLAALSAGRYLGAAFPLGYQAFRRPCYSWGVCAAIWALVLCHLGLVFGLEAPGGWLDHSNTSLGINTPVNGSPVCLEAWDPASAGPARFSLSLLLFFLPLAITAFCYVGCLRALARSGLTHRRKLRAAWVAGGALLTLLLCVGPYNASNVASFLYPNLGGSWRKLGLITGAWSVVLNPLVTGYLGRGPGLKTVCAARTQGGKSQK

[2] = Clearance in rat at 0.5 mg/kg, iv; type: ADME, organism-based; parameters: dose 0.5 mg/kg, route intravenous; settings: in vivo
[3] = molecular target: T1, Free fatty acid receptor 1; assay: Agonist activity at GPR40 (unknown origin) expressed in mouse A9 cells assessed as inositol phosphate accumulation using [myo-3H]inositol after 1 hr by scintillation counting in presence of 0.3% human serum albumin; type: functional, cell-based
[4] = molecular target: T1, Free fatty acid receptor 1; assay: Agonist activity at GPR40 (unknown origin) expressed in CHO cells assessed as luminescence for 20 seconds interval by aequorin assay in presence of 0.01% human serum albumin relative to AM-1638; type: cell-based
[5] = Oral bioavailability in rat at 2 mg/kg; type: ADME, organism-based; settings: in vivo
[6] = Half life in rat at 0.5 mg/kg, iv; type: ADME, organism-based; parameters: dose 0.5 mg/kg, route intravenous; settings: in vivo
[7] = molecular target: T1, Free fatty acid receptor 1; assay: Agonist activity at GPR40 (unknown origin) expressed in mouse A9 cells assessed as inositol phosphate accumulation using [myo-3H]inositol after 1 hr by scintillation counting in presence of 0.3% human serum albumin relative to AM-1638; type: functional, cell-based
[8] = Intrinsic clearance in human liver microsomes at 1 uM after 30 mins; type: ADME; settings: read-out: CLH
[9] = Intrinsic clearance in rat liver microsomes at 1 uM after 30 mins; type: ADME; settings: read-out: CLH
Mus musculus [10] = assay: Induction of GLP-1 release in po dosed high fat fed C57/Bl6 mouse streptozotocin-induced type 2 diabetic model; type: functional, organism-based
Mus musculus [11] = assay: Antidiabetic activity in high fat fed C57/Bl6 mouse streptozotocin-induced type 2 diabetic model assessed as reduction of blood glucose level at 30 mg/kg, po up to 120 mins by oral glucose tolerance test; type: functional, organism-based; parameters: dose 30 mg/kg
Mus musculus [12] = assay: Antidiabetic activity in po dosed high fat fed C57/Bl6 mouse streptozotocin-induced type 2 diabetic model assessed as reduction of blood glucose level up to 120 mins by oral glucose tolerance test; type: functional, organism-based
Mus musculus [13] = assay: Antidiabetic activity in diet-induced obesity BDF1 mouse model assessed as reduction of blood glucose level at 30 mg/kg, po up to 120 mins by oral glucose tolerance test; type: functional, organism-based; parameters: dose 30 mg/kg
Mus musculus [14] = assay: Antidiabetic activity in high fat fed C57/Bl6 mouse streptozotocin-induced type 2 diabetic model assessed as reduction of blood glucose level at 60 mg/kg, po up to 120 mins by oral glucose tolerance test; type: functional, organism-based; parameters: dose 60 mg/kg
Mus musculus [15] = assay: Antidiabetic activity in diet-induced obesity BDF1 mouse model assessed as reduction of blood glucose level at 0.3 mg/kg, po up to 120 mins by oral glucose tolerance test; type: functional, organism-based; parameters: dose 0.3 mg/kg
Mus musculus [16] = assay: Antidiabetic activity in diet-induced obesity BDF1 mouse model assessed as reduction of blood glucose level at 3 to 10 mg/kg, po up to 120 mins by oral glucose tolerance test; type: functional, organism-based
Mus musculus [17] = assay: Antidiabetic activity in diet-induced obesity BDF1 mouse model assessed as reduction of blood glucose level at 3 mg/kg, po up to 120 mins by oral glucose tolerance test; type: functional, organism-based; parameters: dose 3 mg/kg

| Compound | EC50 [1] | clearance [2] | EC50 [3] | Emax [4] | bioavailability [5] | half-life [6] | Emax [7] | further results |
| --- | --- | --- | --- | --- | --- | --- | --- | --- |
| COc1cc(-c2ccc(COc3cc4c(cn3)CC[C@]43C[C@H]3C(=O)O)cc2[C@@H]2CCCC2(C)C)c(F)cn1 | 249 nM | 4.33 mL/min/kg | 22 nM | 98% | 58% | 216 min | 97% | – |
| COc1ccc(F)c(-c2ccc(COc3cccc([C@@H](CC(=O)O)C4CC4)c3)cc2[C@@H]2CCCC2(C)C)c1 | 76 nM | 11.7 mL/min/kg | – | 101% | 34% | 120 min | – | microsomal CLint at 1 µM [8]: 52 µL/min/mg; microsomal CLint at 1 µM [9]: 219 µL/min/mg |
| COc1cc(-c2ccc(COc3cccc([C@@H](CC(=O)O)C4CC4)c3)cc2C2=CCCC2(C)C)c(F)cn1 | 120 nM | – | – | 100% | – | – | – | – |
| CCC[C@H](CC(=O)O)c1cccc(OCc2ccc(-c3cccc(OC)c3)c(C(C)(C)C)c2)c1 | 370 nM | – | – | 94% | – | – | – | – |
| COc1cc(-c2ccc(COc3cc([C@@H](CC(=O)O)C4CC4)ccn3)cc2[C@@H]2CCCC2(C)C)c(F)cn1 | 108 nM | 1.43 mL/min/kg | 1.7 nM | 110% | 37% | 582 min | 100% | – |
| COc1ccc(F)c(-c2ccc(COc3cccc([C@@H](CC(=O)O)C4CC4)c3)cc2[C@@H](OC)C(C)(C)C)c1 | 1410 nM | – | – | 98% | – | – | – | – |
| COc1cc(-c2ccc(COc3cc([C@H](C)CC(=O)O)ccn3)cc2[C@@H]2CCCC2(C)C)c(F)cn1 | 281 nM | – | 19 nM | 136% | – | – | 100% | – |
| COc1ccc(F)c(-c2ccc(COc3cccc([C@@H](CC(=O)O)C4CC4)c3)cc2[C@H](F)C(C)(C)C)c1 | 105 nM | – | – | 100% | – | – | – | – |
| COc1ccc(F)c(-c2ccc(COc3cccc([C@@H](CC(=O)O)C4CC4)c3)cc2CC(C)(C)C)c1 | 88 nM | 20 mL/min/kg | – | 102% | – | 72 min | – | – |
| COc1cc(-c2ccc(COc3cccc([C@@H](CC(=O)O)C4CC4)c3)cc2[C@@H]2CCCC2(C)C)c(F)cn1 | 68 nM | 1.67 mL/min/kg | – | 95% | 34% | 210 min | – | microsomal CLint at 1 µM [8]: 21 µL/min/mg; microsomal CLint at 1 µM [9]: 67 µL/min/mg |
| CC[C@H](CC(=O)O)c1ccnc(OCc2ccc(-c3cc(OC)ncc3F)c([C@@H]3CCCC3(C)C)c2)c1 | 150 nM | 2.5 mL/min/kg | 6 nM | 99% | 83% | 492 min | 102% | – |
| COc1cc(-c2ccc(COc3ccc4c(c3)[C@@](C)(CC(=O)O)CC4)cc2[C@H](OC)C(C)(C)C)c(F)cn1 | 235 nM | 4.17 mL/min/kg | 6.7 nM | 106% | 21% | 240 min | 101% | – |
| COc1ccc(F)c(-c2ccc(COc3cccc([C@@H](CC(=O)O)C4CC4)c3)cc2[C@@H]2OCCCC2(C)C)c1 | 227 nM | – | – | 96% | – | – | – | – |
| COc1cc(-c2ccc(COc3cc4c(cn3)CC[C@]43C[C@H]3C(=O)O)cc2[C@H](OC)C(C)(C)C)c(F)cn1 | 250 nM | 28.3 mL/min/kg | 370 nM | 85% | – | 72 min | 122% | – |
| COc1cc(-c2ccc(COc3ccc4c(c3)[C@@](C)(CC(=O)O)CC4)cc2[C@@H]2CCCC2(C)C)c(F)cn1 | 128 nM | 7.5 mL/min/kg | 3.4 nM | 100% | 10% | 222 min | 100% | – |
| COc1cc(-c2ccc(COc3cccc([C@@H](CC(=O)O)C4CC4)c3F)cc2[C@@H]2CCCC2(C)C)c(F)cn1 | 93 nM | 2.83 mL/min/kg | – | 102% | 98% | 276 min | – | microsomal CLint at 1 µM [8]: 15 µL/min/mg; Activity (Mus musculus [10]): Dose-dependent effect; Activity (Mus musculus [11]): Active; Activity (Mus musculus [12]): Dose-dependent effect; microsomal CLint at 1 µM [9]: 52 µL/min/mg; Activity (Mus musculus [13]): Active |
| CCC[C@H](CC(=O)O)c1cccc(OCc2ccc(-c3cccc(OC)n3)c(C(C)(C)C)c2)c1 | 3700 nM | – | – | 61% | – | – | – | – |
| CCO[C@@H](c1cc(COc2cccc([C@@H](CC(=O)O)C3CC3)c2)ccc1-c1cc(OC)ccc1F)C(C)(C)C | 114 nM | 5.33 mL/min/kg | – | 101% | – | 234 min | – | – |
| CCC[C@H](CC(=O)O)c1cccc(OCc2ccc(-c3cncc(OC)c3)c(C(C)(C)C)c2)c1 | 30000 nM | – | – | 72% | – | – | – | – |
| COc1ccc(F)c(-c2ccc(COc3cccc([C@@H](CC(=O)O)C4CC4)c3)cc2[C@H](OC)C(C)(C)C)c1 | 147 nM | 4.67 mL/min/kg | – | 105% | – | 210 min | – | – |
| COc1ccc(F)c(-c2ccc(COc3cccc([C@@H](CC(=O)O)C4CC4)c3)cc2C2=CCCC2(C)C)c1 | – | – | – | – | – | – | – | Activity (Mus musculus [14]): Active |
| COc1cc(-c2ccc(COc3cc([C@@H](CC(=O)O)C4CC4)ccn3)cc2[C@H](OC)C(C)(C)C)c(F)cn1 | 162 nM | 1.02 mL/min/kg | 0.6 nM | 94% | 54% | 486 min | 100% | Activity (Mus musculus [15]): Active; Activity (Mus musculus [16]): Active; Activity (Mus musculus [17]): Active |
